Measured values as given in US8476265B2, “Compounds-801” (AstraZeneca AB, priority 2010, dated 2013).
Structures can show the parent of a compound that is named as a salt.

How the values were obtained:
[1] = molecular target: T1, human muscarinic acetylcholine M3 receptor (Homo sapiens, UniProt P20309); experiment: Muscarinic 3 receptor binding assay ([3H]NMS competition, SPA), pIC50; details: [3H]NMS 0.1 nM, CHO-K1 cell membranes expressing human M3 receptor
T1 construct: expressed in transfected cells; host or cells: CHO-K1 (Chinese Hamster Ovary) cell membranes
T1 sequence (P20309 whole entry): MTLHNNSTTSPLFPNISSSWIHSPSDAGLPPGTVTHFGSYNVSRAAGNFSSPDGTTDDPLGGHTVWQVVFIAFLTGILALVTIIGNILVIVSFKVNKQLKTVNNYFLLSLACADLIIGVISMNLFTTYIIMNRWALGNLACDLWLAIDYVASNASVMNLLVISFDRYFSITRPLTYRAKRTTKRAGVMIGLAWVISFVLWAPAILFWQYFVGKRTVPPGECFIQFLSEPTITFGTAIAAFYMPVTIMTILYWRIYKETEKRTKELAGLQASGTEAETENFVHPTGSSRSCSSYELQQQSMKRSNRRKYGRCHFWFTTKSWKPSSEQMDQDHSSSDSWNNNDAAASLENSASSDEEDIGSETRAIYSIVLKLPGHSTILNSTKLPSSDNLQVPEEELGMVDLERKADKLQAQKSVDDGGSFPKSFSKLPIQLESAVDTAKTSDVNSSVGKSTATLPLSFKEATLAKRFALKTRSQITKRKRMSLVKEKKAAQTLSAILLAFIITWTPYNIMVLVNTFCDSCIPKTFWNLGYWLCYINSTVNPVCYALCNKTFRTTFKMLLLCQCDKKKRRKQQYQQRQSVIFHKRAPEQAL
How it was run: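 Competition of [3H]NMS (0.1 nM, quarter Kd) binding to CHO-K1 membranes expressing human M3, SPA format, in 20 mM HEPES pH 7.4, 5 mM MgCl2, 0.1% BSA, 1% DMSO. Incubated 16 h at room temperature; non-specific binding with 1 μM atropine; pIC50 from specific binding.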

Adrenergic β2 [2] = molecular target: T2, Adrenergic β2 (Homo sapiens, UniProt P07550); experiment: Adrenergic β2 mediated cAMP production in H292 cells (AlphaScreen), concentration response; format: cell-based; details: for EC50: 60 min, 300 μM rolipram, read-out: β2 pEC50 (converted); for β2 Intrinsic Activity: fraction relative to the maximum activity determined for formoterol
T2 construct: Adherent H292 cells are removed from tissue culture flasks by treatment with Accutase™ cell detachment solution; endogenous in cells; host or cells: H292 cells
T2 sequence (P07550 whole entry): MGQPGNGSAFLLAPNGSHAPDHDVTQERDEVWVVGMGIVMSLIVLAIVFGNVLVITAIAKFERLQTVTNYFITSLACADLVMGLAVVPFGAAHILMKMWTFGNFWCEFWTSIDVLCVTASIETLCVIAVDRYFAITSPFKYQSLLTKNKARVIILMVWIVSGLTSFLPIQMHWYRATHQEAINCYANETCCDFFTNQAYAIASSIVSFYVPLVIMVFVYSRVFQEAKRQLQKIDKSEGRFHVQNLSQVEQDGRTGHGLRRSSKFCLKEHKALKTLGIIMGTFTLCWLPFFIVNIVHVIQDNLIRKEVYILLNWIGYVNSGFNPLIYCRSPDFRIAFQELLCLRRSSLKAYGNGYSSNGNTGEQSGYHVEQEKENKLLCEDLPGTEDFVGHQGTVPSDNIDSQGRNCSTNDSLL
How it was run: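 H292 cells seeded overnight, pretreated 10 min with rolipram (300 μM final), then exposed to compounds 60 min at room temperature in HBSS/10 mM HEPES pH 7.4/5 mM glucose, 1% DMSO. Lysate cAMP quantified by AlphaScreen against a standard curve; four-parameter fit gives pEC50 and intrinsic activity relative to formoterol maximum.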

Adrenergic β2 [3] = molecular target: T2, Adrenergic β2; experiment: Adrenergic β2 mediated cAMP production in H292 cells, single concentration 1 μM; format: cell-based; details: NCI-H292, 1 μM compound, cAMP as percentage of the maximum response generated by 1E-07M formoterol, read-out: β2 % effect @1 uM
Procedure: The following experimental procedure was used to measure the beta-2% effect at 1 μM for the compounds of Examples 99-175. Adrenergic p2 Mediated cAMP Production Cell Preparation
H292 cells are grown in 225 cm2 flasks incubator at 37° C., 5% CO2 in RPMI medium containing 10% (v/v) FBS (foetal bovine serum) and 2 mM L-glutamine.
Compounds are prepared by an initial first dilution into DMSO to give 1 mM stock concentration. This is followed by a 1 in 10 dilution of the stock concentration (10 μl stock compound +90 μl DMSO) to give 0.1 mM compound. A compound addition plate is prepared by making a further 1 in 25 dilution in assay buffer (HBSS solution containing 10 mM HEPES pH7.4 and 5 mM glucose) containing 4% dimethylsulfoxide. The final compound concentration in assay is 1 μM.
Adherent H292 cells are removed from tissue culture flasks by treatment with Accutase™ cell detachment solution for 15 minutes. Flasks are incubated for 15 minutes in a humidified incubator at 37° C., 5% CO2. Detached cells are re-suspended in RPMI media (containing 10% (v/v) FBS and 2 mM L-glutamine) at 0.1×10^6 cells per mL. 10000 cells in 100 μL are added to each well of a tissue-culture-treated 96-well plate and the cells incubated overnight in a humidified incubator at 37° C., 5% CO2. The culture media is removed and cells are washed twice with 100 μL assay buffer and replaced with 50 μL assay buffer (HBSS solution containing 10 mM HEPES pH7.4 and 5 mM glucose). Cells are rested at room temperature for 20 minutes after which time 25 μL of rolipram (1.2 mM made up in assay buffer) is added. Cells are incubated with rolipram for 10 minutes after which time 25 μl test compounds are added and the cells are incubated for 60 minutes at room temperature. The final rolipram concentration in the assay is 300 μM and final vehicle concentration is 1% (v/v) dimethylsulphoxide. The reaction is stopped by removing supernatants, washing once with 100 μL assay buffer and replacing with 50 μL lysis buffer. The cell monolayer is frozen at −80° C. for 30 minutes (or overnight).
AlphaScreen™ cAMP Detection
The concentration of cAMP (cyclic adenosine monophosphate) in the cell lysate is determined using AlphaScreen™ methodology. The frozen cell plate is thawed for 20 minutes on a plate shaker then 10 μL of the cell lysate is transferred to a 96-well white plate. 40 μl of mixed AlphaScreen™ detection beads (containing equal volumes of donor beads (pre-incubated with biotinylated cAMP in the dark for 30 minutes) and acceptor beads is added to each well and the plate incubated at room temperature for 3 hours in the dark. The AlphaScreen™ signal is measured using an EnVision spectrophotometer (Perkin-Elmer Inc.) with the recommended manufacturer's settings. Concentration of cAMP produced per well were calculated with reference to the cAMP standard curve determined in the same experiment and expressed as a percentage of the maximum response generated by 1E-07M formoterol.

[4] = molecular target: T1, human muscarinic acetylcholine M3 receptor; experiment: Muscarinic 3 receptor binding assay ([3H]NMS competition, SPA), single concentration 1 μM; details: 1 μM compound; % inhibition specific [3H]-NMS binding
Procedure: The following experimental procedure was used to determine the M3% inhibition at 1 μM of the compounds of Examples 99-175
Muscarinic 3 Receptor Binding Assay
The activity (% inhibition specific binding) of compounds on the M3 receptor is determined by competition binding of [^3H]N-methyl scopolamine (NMS) to CHO-K1 (Chinese Hamster Ovary) cell membranes expressing the human muscarinic acetylcholine M3 receptor (M3-ACh) in a scintillation proximity assay (SPA) format. SPA beads are precoated with membranes and then incubated at 2 mg of beads per well with 1 μM compound of the invention, [^3H]NMS at 0.1 nM, quarter Kd (experimentally determined dissociation constant) and assay buffer (20 mM HEPES pH 7.4 containing 5 mM MgCl2 and 0.1% (w/v) bovine serum albumin). The assay is conducted in a final volume of 200 μL, in the presence of 1% (v/v) dimethyl sulphoxide (DMSO). Total binding of [^3H]NMS is determined in the absence of competing compound and non-specific binding of [^3H]NMS is determined in the presence of 1 μM atropine. The plates are incubated for 16 hours at room temperature and then read on Wallac Microbeta™ using a normalised ^3H protocol. The compound activity at 1 μM, defined as % inhibition specific [^3H]-NMS binding, is determined.

CC(C)c1cccc(C(=O)N2CCOC3(CCN(Cc4cccc(CCOCCC(=O)N(CCNCCc5ccc(O)c6c5OCC(=O)N6)C5CCCCC5)c4)CC3)C2)n1 [Example 97, N-Cyclohexyl-N-(2-(2-(5-hydroxy-3-oxo-3,4-dihydro-2H-benzo[b][1,4]oxazin-8-yl)ethylamino)ethyl)-3-(3-((4-(6-isopropylpicolinoyl)-1-oxa-4,9-diazaspiro[5.5]undecan-9-yl)methyl)phenethoxy)propanamide]
IC50 [1]: 1.26 nM | EC50 (Adrenergic β2 [2]): 158 nM | β2 Intrinsic Activity (Adrenergic β2 [2]): 1.0

CC(C)c1csc(C(=O)N2CCOC3(CCN(Cc4cccc(CCOCCC(=O)N(CCNCCc5ccc(O)c6c5OCC(=O)N6)C5CCCCC5)c4)CC3)C2)c1 [Example 98, N-Cyclohexyl-N-(2-(2-(5-hydroxy-3-oxo-3,4-dihydro-2H-benzo[b][1,4]oxazin-8-yl)ethylamino)ethyl)-3-(3-((4-(4-isopropylthiophene-2-carbonyl)-1-oxa-4,9-diazaspiro[5.5]undecan-9-yl)methyl)phenethoxy)propanamide]
IC50 [1]: 0.794 nM | EC50 (Adrenergic β2 [2]): 200 nM | β2 Intrinsic Activity (Adrenergic β2 [2]): 1.1

O=C1COc2c(CCNCCN(C(=O)CCOCCc3cccc(CN4CCC5(CC4)CN(C(=O)c4cnc6ccccc6c4)CCO5)c3)C3CCCCC3)ccc(O)c2N1 [Example 99, N-Cyclohexyl-N-(2-(2-(5-hydroxy-3-oxo-3,4-dihydro-2H-benzo[b][1,4]oxazin-8-yl)ethylamino)ethyl)-3-(3-((4-(quinoline-3-carbonyl)-1-oxa-4,9-diazaspiro[5.5]undecan-9-yl)methyl)phenethoxy)propanamide]
percent of formoterol maximum response at 1 µM (Adrenergic β2 [3]): 112% | inhibition at 1 µM [4]: 99%

O=C1COc2c(CCNCCN(C(=O)CCOCCc3cccc(CN4CCC5(CC4)CN(C(=O)c4cccc6cccnc46)CCO5)c3)C3CCCCC3)ccc(O)c2N1 [Example 100, N-Cyclohexyl-N-(2-(2-(5-hydroxy-3-oxo-3,4-dihydro-2H-benzo[b][1,4]oxazin-8-yl)ethylamino)ethyl)-3-(3-((4-(quinoline-8-carbonyl)-1-oxa-4,9-diazaspiro[5.5]undecan-9-yl)methyl)phenethoxy)propanamide]
percent of formoterol maximum response at 1 µM (Adrenergic β2 [3]): 95% | inhibition at 1 µM [4]: 96%

CCOc1ncccc1C(=O)N1CCOC2(CCN(Cc3cccc(CCOCCC(=O)N(CCNCCc4ccc(O)c5c4OCC(=O)N5)C4CCCCC4)c3)CC2)C1 [Example 101, N-Cyclohexyl-3-(3-((4-(2-ethoxynicotinoyl)-1-oxa-4,9-diazaspiro[5.5]undecan-9-yl)methyl)phenethoxy)-N-(2-(2-(5-hydroxy-3-oxo-3,4-dihydro-2H-benzo[b][1,4]oxazin-8-yl)ethylamino)ethyl)propanamide]
percent of formoterol maximum response at 1 µM (Adrenergic β2 [3]): 105% | inhibition at 1 µM [4]: 95%

O=C1COc2c(CCNCCN(C(=O)CCOCCc3cccc(CN4CCC5(CC4)CN(C(=O)c4cncc(Br)c4)CCO5)c3)C3CCCCC3)ccc(O)c2N1 [Example 102, 3-(3-((4-(5-Bromonicotinoyl)-1-oxa-4,9-diazaspiro[5.5]undecan-9-yl)methyl)phenethoxy)-N-cyclohexyl-N-(2-(2-(5-hydroxy-3-oxo-3,4-dihydro-2H-benzo[b][1,4]oxazin-8-yl)ethylamino)ethyl)propanamide]
percent of formoterol maximum response at 1 µM (Adrenergic β2 [3]): 108% | inhibition at 1 µM [4]: 99%

O=C1COc2c(CCNCCN(C(=O)CCOCCc3cccc(CN4CCC5(CC4)CN(C(=O)CCc4nc6ccccc6[nH]4)CCO5)c3)C3CCCCC3)ccc(O)c2N1 [Example 103, 3-(3-((4-(3-(1H-Benzo[d]imidazol-2-yl)propanoyl)-1-oxa-4,9-diazaspiro[5.5]undecan-9-yl)methyl)phenethoxy)-N-cyclohexyl-N-(2-(2-(5-hydroxy-3-oxo-3,4-dihydro-2H-benzo[b][1,4]oxazin-8-yl)ethylamino)ethyl)propanamide]
percent of formoterol maximum response at 1 µM (Adrenergic β2 [3]): 109% | inhibition at 1 µM [4]: 90%

O=C1COc2c(CCNCCN(C(=O)CCOCCc3cccc(CN4CCC5(CC4)CN(C(=O)C(CO)c4ccccc4)CCO5)c3)C3CCCCC3)ccc(O)c2N1 (stereo not drawn) [Example 104, N-Cyclohexyl-3-(3-((4-(3-hydroxy-2-phenylpropanoyl)-1-oxa-4,9-diazaspiro[5.5]undecan-9-yl)methyl)phenethoxy)-N-(2-(2-(5-hydroxy-3-oxo-3,4-dihydro-2H-benzo[b][1,4]oxazin-8-yl)ethylamino)ethyl)propanamide]
percent of formoterol maximum response at 1 µM (Adrenergic β2 [3]): 100% | inhibition at 1 µM [4]: 101%

CC(C)c1nc(C(=O)N2CCOC3(CN(CCc4cccc(CCOCCC(=O)N(CCNCCc5ccc(O)c6c5OCC(=O)N6)C5CCCCC5)c4)C3)C2)cs1 [Example 176, N-Cyclohexyl-N-(2-(2-(5-hydroxy-3-oxo-3,4-dihydro-2H-benzo[b][1,4]oxazin-8-yl)ethylamino)ethyl)-3-(3-(2-(8-(2-isopropylthiazole-4-carbonyl)-5-oxa-2,8-diazaspiro[3.5]nonan-2-yl)ethyl)phenethoxy)propanamide, trifluoroacetate salt]
IC50 [1]: 2.51 nM | EC50 (Adrenergic β2 [2]): 15.8 nM | β2 Intrinsic Activity (Adrenergic β2 [2]): 1.2

CCN(CCNCCc1ccc(O)c2c1OCC(=O)N2)C(=O)CCOCCc1cccc(CCN2CC3(C2)CN(C(=O)c2csc(C(C)C)n2)CCO3)c1 [Example 177, N-ethyl-N-(2-(2-(5-hydroxy-3-oxo-3,4-dihydro-2H-benzo[b][1,4]oxazin-8-yl)ethylamino)ethyl)-3-(3-(2-(8-(2-isopropylthiazole-4-carbonyl)-5-oxa-2,8-diazaspiro[3.5]nonan-2-yl)ethyl)phenethoxy)propanamide, trifluoroacetate salt]
IC50 [1]: 1.26 nM | EC50 (Adrenergic β2 [2]): 10 nM | β2 Intrinsic Activity (Adrenergic β2 [2]): 1.1

CCCCN(CCNCCc1ccc(O)c2c1OCC(=O)N2)C(=O)CCOCCc1ccccc1OCCN1CCC2(CC1)CN(C(=O)c1csc(C(C)C)n1)CCO2 [Example 178, N-butyl-N-(2-(2-(5-hydroxy-3-oxo-3,4-dihydro-2H-benzo[b][1,4]oxazin-8-yl)ethylamino)ethyl)-3-(2-(2-(4-(2-isopropylthiazole-4-carbonyl)-1-oxa-4,9-diazaspiro[5.5]undecan-9-yl)ethoxy)phenethoxy)propanamide trifluoroacetate salt]
IC50 [1]: 12.6 nM | EC50 (Adrenergic β2 [2]): 501 nM | β2 Intrinsic Activity (Adrenergic β2 [2]): 1.2
